According to patent US6756359B2, “C12 modified erythromycin macrolides and ketolides having antibacterial activity” (Chiron Corporation, priority 2001, dated 2004):
Values after ≈ are worked out from the molar mass of the structure shown.

Legend:
Experiment in all cases: Antibacterial activity in vitro, MIC by broth microdilution
[1] = test system: E. faecalis Enfa_29212; type: cell-based; settings: Table 5, Strain ID D: E. faecalis Enfa_29212; unit assumed
Summary of the method: (§1)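 Broth microdilution per NCCLS in cation-adjusted Mueller-Hinton broth, final inoculum 3×10^5–7×10^5 CFU/mL, 2-fold serial drug dilutions, 35° C. for 18-24 hours. S. pneumoniae grown in CAMHB with 2-5% lysed horse blood under 5-10% CO2. MIC is the lowest concentration preventing visible growth.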

[2] = test system: S. pyogenes Stpy_8668; type: cell-based; settings: Table 5, Strain ID E: S. pyogenes Stpy_8668
Summary of the method: as §1

[3] = test system: S. aureus Stau_29213; type: cell-based; settings: Table 5, Strain ID A: S. aureus Stau_29213; unit assumed
Summary of the method: as §1

[4] = test system: S. epidermidis Step_14990; type: cell-based; settings: Table 5, Strain ID B: S. epidermidis Step_14990; unit assumed
Summary of the method: as §1

[5] = test system: S. epidermidis Step_f50654 Pen S; type: cell-based; settings: Table 5, Strain ID C: S. epidermidis Step_f50654; unit assumed
Summary of the method: as §1

[6] = test system: S. pneumoniae Stpn_Erm S 4297; type: cell-based, Streptococcus pneumoniae; settings: Table 5, Strain ID J: S. pneumoniae Stpn_Erm S 4297
Summary of the method: as §1

[7] = test system: S. pneumoniae Stpn_Mef S 3427; type: cell-based, Streptococcus pneumoniae; settings: Table 5, Strain ID L: S. pneumoniae Stpn_Mef S 3427; unit assumed
Summary of the method: as §1

[8] = test system: S. pneumoniae Stpn_297-749 Pen R; type: cell-based, Streptococcus pneumoniae; settings: Table 5, Strain ID G: S. pneumoniae Stpn_297-749
Summary of the method: as §1

[9] = test system: S. pneumoniae Stpn_Mef 5654; type: cell-based, Streptococcus pneumoniae; settings: Table 5, Strain ID K: S. pneumoniae Stpn_Mef 5654; unit assumed
Summary of the method: as §1

[10] = test system: S. pneumoniae Stpn_280-962 Pen S; type: cell-based, Streptococcus pneumoniae; settings: Table 5, Strain ID H: S. pneumoniae Stpn_280-962
Summary of the method: as §1

[11] = test system: S. pneumoniae Stpn_Erm 6849; type: cell-based, Streptococcus pneumoniae; settings: Table 5, Strain ID I: S. pneumoniae Stpn_Erm 6849; unit assumed
Summary of the method: as §1

[12] = test system: S. pneumoniae Stpn_49619; type: cell-based, Streptococcus pneumoniae; settings: Table 5, Strain ID F: S. pneumoniae Stpn_49619
Summary of the method: as §1

[13] = test system: H. influenzae Hain_49247; type: cell-based, Haemophilus influenzae; settings: Table 5, Strain ID M: H. influenzae Hain_49247; unit assumed
Summary of the method: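 Visible-growth inhibition defined the MIC, obtained by NCCLS broth microdilution at 35° C. over 18-24 hours with a final inoculum of 3×10^5–7×10^5 CFU/mL.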

| MIC [1] | MIC [3] | MIC [4] | MIC [5] | MIC ([6]; unit assumed) | MIC [7] | MIC [9] | MIC [11] | MIC [13] | MIC [2] | MIC [8] | MIC [10] | MIC [12] | MIC [6] | SMILES | MIC ([2]; unit assumed) | MIC ([8]; unit assumed) | MIC ([10]; unit assumed) | MIC ([12]; unit assumed) |
| --- | --- | --- | --- | --- | --- | --- | --- | --- | --- | --- | --- | --- | --- | --- | --- | --- | --- | --- |
| 0.1 µg/mL (≈ 0.121 µM) | 0.4 µg/mL (≈ 0.483 µM) | 0.2 µg/mL (≈ 0.242 µM) | 0.2 µg/mL (≈ 0.242 µM) | 0.1 µg/mL (≈ 0.121 µM) | 0.2 µg/mL (≈ 0.242 µM) | 1.56 µg/mL (≈ 1.88 µM) | 0.4 µg/mL (≈ 0.483 µM) | 6.25 µg/mL (≈ 7.55 µM) | ≦0.05 | ≦0.05 | ≦0.05 | ≦0.05 |  | CC[C@H]1OC(=O)[C@H](C)C(=O)[C@H](C)[C@@H](OC2O[C@H](C)C[C@H](N(C)C)[C@H]2O)[C@@](C)(OC)C[C@@H](C)C(=O)[C@H](C)[C@H]2N(CCCC(C)(C)n3cnc4ncccc43)C(=O)O[C@]12CC (stereo partly drawn) [Example 37, (3aS,4R,7R,9R,10R,11S,13R,15R,15aR)-3a,4-diethyl-1-[4-(1H-imidazo[4,5-b]pyridin-1-yl)-4-methylpentyl]-11-methoxy-7,9,11,13,15-pentamethyl-2,6,8,14-tetraoxotetradecahydro-2H-oxacyclotetradecino[4,3-d][1,3]oxazol-10-yl 3,4,6-trideoxy-3-(dimethylamino)-D-xylo-hexopyranoside] |  |  |  |  |
| 0.1 µg/mL (≈ 0.121 µM) | 0.2 µg/mL (≈ 0.242 µM) | 0.2 µg/mL (≈ 0.242 µM) | 0.2 µg/mL (≈ 0.242 µM) | 0.1 µg/mL (≈ 0.121 µM) | 0.1 µg/mL (≈ 0.121 µM) | 0.78 µg/mL (≈ 0.942 µM) | 0.4 µg/mL (≈ 0.483 µM) | 6.25 µg/mL (≈ 7.55 µM) | ≦0.05 | ≦0.05 | ≦0.05 | ≦0.05 |  | CC[C@H]1OC(=O)[C@H](C)C(=O)[C@H](C)[C@@H](OC2O[C@H](C)C[C@H](N(C)C)[C@H]2O)[C@@](C)(OC)C[C@@H](C)C(=O)[C@H](C)[C@H]2N(CCCC(C)(C)n3cnc4cccnc43)C(=O)O[C@]12CC (stereo partly drawn) [Example 38, (3aS,4R,7R,9R,10R,11S,13R,15R,15aR)-3a,4-diethyl-1-[4-(3H-imidazol[4,5-b]pyridin-3-yl)-4-methylpentyl]-11-methoxy-7,9,11,13,15-pentamethyl-2,6,8,14-tetraoxotetradecahydro-2H-oxacyclotetradecino[4,3-d][1,3]oxazol-10-yl 3,4,6-trideoxy-3-(dimethylamino)-D-xylo-hexopyranoside] |  |  |  |  |
| 0.1 µg/mL (≈ 0.118 µM) | 0.2 µg/mL (≈ 0.236 µM) | 0.2 µg/mL (≈ 0.236 µM) | 0.2 µg/mL (≈ 0.236 µM) |  | 0.2 µg/mL (≈ 0.236 µM) | 0.78 µg/mL (≈ 0.922 µM) | 0.2 µg/mL (≈ 0.236 µM) | 6.25 µg/mL (≈ 7.39 µM) | ≦0.05 | ≦0.05 | ≦0.05 | ≦0.05 | ≦0.05 | CC[C@H]1OC(=O)[C@@](C)(F)C(=O)[C@H](C)[C@@H](O[C@@H]2O[C@H](C)C[C@H](N(C)C)[C@H]2O)[C@@](C)(OC)C[C@@H](C)C(=O)[C@H](C)[C@H]2N(CCCC(C)(C)n3cnc4cccnc43)C(=O)O[C@]12CC [Example 40, (3aS,4R,7S,9R,10R,11S,13R,15R,15aR)-3a,4-diethyl-7-fluoro-1-[4-(3H-imidazo[4,5-b]pyridin-3-yl)-4-methylpentyl]-11-methoxy-7,9,11,13,15-pentamethyl-2,6,8,14-tetraoxotetradecahydro-2H-oxacyclotetradecino[4,3-d][1,3]oxazol-10-yl 3,4,6-trideoxy-3-(dimethylamino)-D-xylo-hexopyranoside] |  |  |  |  |

| SMILES | MIC [1] | MIC [3] | MIC [4] | MIC [5] | MIC ([6]; unit assumed) | MIC [7] | MIC [9] | MIC [11] | MIC [13] | MIC [2] | MIC [8] | MIC [10] | MIC [12] | MIC [6] | MIC ([2]; unit assumed) | MIC ([8]; unit assumed) | MIC ([10]; unit assumed) | MIC ([12]; unit assumed) |
| --- | --- | --- | --- | --- | --- | --- | --- | --- | --- | --- | --- | --- | --- | --- | --- | --- | --- | --- |
| CC[C@H]1OC(=O)[C@H](C)C(=O)[C@H](C)[C@@H](OC2O[C@H](C)C[C@H](N(C)C)[C@H]2O)[C@@](C)(OC)C[C@@H](C)C(=O)[C@H](C)[C@H]2N(CCCOc3ccc(-c4cccnc4)cc3)C(=O)O[C@]12CC (stereo partly drawn) [Example 36, (3aS,4R,7R,9R,10R,11S,13R,15R,15aR)-3a,4-diethyl-11-methoxy-7,9,11,13,15-pentamethyl-2,6,8,14-tetraoxo-1-[3-(4-pyridin-3-ylphenoxy)propyl]-tetradecahydro-2H-oxacyclotetradecino[4,3-d][1,3]oxazol-10-yl 3,4,6-trideoxy-3-(dimethylamino)-D-xylo-hexopyranoside] | 0.78 µg/mL (≈ 0.931 µM) | 6.25 µg/mL (≈ 7.46 µM) | 1.56 µg/mL (≈ 1.86 µM) | 0.78 µg/mL (≈ 0.931 µM) | 12.5 µg/mL (≈ 14.9 µM) | 0.78 µg/mL (≈ 0.931 µM) | 12.5 µg/mL (≈ 14.9 µM) | 0.1 µg/mL (≈ 0.119 µM) | 0.2 µg/mL (≈ 0.239 µM) |  |  |  |  |  | 0.4 µg/mL (≈ 0.477 µM) | 0.1 µg/mL (≈ 0.119 µM) | 0.1 µg/mL (≈ 0.119 µM) | 25 µg/mL (≈ 29.8 µM) |
